The test system of test [1] is adenosine kinase. To be noted: literature; cited from earlier work.
The target in test [2] is adenosine kinase (Homo sapiens, UniProt P55263). Put plainly: In vitro inhibition of adenosine kinase activity. It counts as biochemical. To be noted: Table 2, in vitro. An excerpt: The adenosine kinase to be inhibited can be located in vitro, in situ or in vivo. Where the adenosine kinase is located in vitro, adenosine kinase is contacted with the inhibitor compound, typically by adding the compound to an aqueous solution containing the enzyme, radiolabeled substrate adenosine, magnesium chloride and ATP. The enzyme can exist in intact cells or in isolated subcellular fractions containing the enzyme. The enzyme is then maintained in the presence of the inhibitor for a period of time and under suitable physiological conditions. Means for determining maintained times are well known in the art and depend inter alia on the concentrations of enzyme and the physiological conditions. Suitable physiological conditions are those necessary to maintain adenosine kinase viability and include temperature, acidity, tonicity and the like. Inhibition of adenosine kinase can be performed, by example, according to standard procedures well known in the art (Yamada et at., Comp. Biochem. Physiol. 1982, 71B: 367-372).
In vitro adenosine kinase activity can be measured using any of the standard procedures well known in the art. By way of example, cells containing adenosine kinase, such as IMR-32 human neuroblastoma cells, are cultured in the presence and absence of an inhibitor. Inhibition is measured as the ability to inhibit phosphorylation of endogenous or externally applied ^14 C-adenosine by these cells. The cells can be intact or broken. The specificity of adenosine kinase inhibitory activity is determined by studying the effects of inhibitors on adenosine A1 and A2a receptor binding, adenosine deaminase activity and adenosine transport.
Numerous inhibitor compounds of the present invention were tested in vitro and found to inhibit adenosine kinase activity. The results of some representative studies are shown below in Tables 1 and 2.

This is an account of results in patent publication US5665721A, “Heterocyclic substituted cyclopentane compounds” (Abbott Laboratories, priority 1995, dated 1997).

Broadly, the IC50 is the point on the concentration scale where inhibition reaches its midpoint.

adenosine kinase (Homo sapiens, UniProt P55263), sequence (P55263 whole entry, species assumed): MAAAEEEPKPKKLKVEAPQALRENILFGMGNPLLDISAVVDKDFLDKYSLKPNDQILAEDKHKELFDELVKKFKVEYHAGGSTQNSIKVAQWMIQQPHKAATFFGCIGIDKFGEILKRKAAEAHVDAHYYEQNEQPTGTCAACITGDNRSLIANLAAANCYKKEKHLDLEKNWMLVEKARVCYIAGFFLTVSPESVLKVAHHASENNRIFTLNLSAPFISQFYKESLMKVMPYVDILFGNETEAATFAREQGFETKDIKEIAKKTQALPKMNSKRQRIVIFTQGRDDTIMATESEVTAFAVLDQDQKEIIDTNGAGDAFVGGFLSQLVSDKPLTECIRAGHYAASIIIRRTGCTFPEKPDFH

Turning to `NC[C@H]1O[C@@H](n2cnc3c(N)ncnc32)[C@H](O)[C@@H]1O` [5'-amino,5'-deoxyadenosine], the “reported to inhibit adenosine kinase (in words)” value in test [1] is listed as “most potent”.
On to `C[C@H]1O[C@@H](n2cc(I)c3c(N)ncnc32)[C@H](O)[C@@H]1O` [5'-deoxy-5-iodotubercidin], for which, in test [1], the “reported to inhibit adenosine kinase (in words)” value is on record as “most potent”.
As to `Nc1ncnc2c1c(I)cn2[C@@H]1O[C@H](CO)[C@@H](O)[C@H]1O` [5-iodotubercidin], the “reported to inhibit adenosine kinase (in words)” value in test [1] was “most potent”.
In turn, `N[C@H]1C[C@@H](n2cc(I)c3c(Cl)ncnc32)[C@@H]2OC(=O)O[C@@H]21` [drawing 21 (R=H, R5=Cl), N7-((1'R,2'S,3'R,4'S)-2',3'--O-(2"-oxo-1",3"-dioxalyl)-4'-amino-cyclopentyl)-4-chloro-5-iodo-pyrrolopyrimidine] returned an IC50 in test [2] of 2.5 nM.
